Measurements as given in the CheMixHub viscosity set.

Test: xn = mol fraction of the nth substance listed

C1CCOC1 + O
Settings | viscosity [mPa·s]
298 K, 101 kPa, x2 = 0.217 | 0.5842
298 K, 101 kPa, x2 = 0.284 | 0.6433
298 K, 101 kPa, x2 = 0.331 | 0.6715
298 K, 101 kPa, x2 = 0.3845 | 0.7352
298 K, 101 kPa, x2 = 0.4994 | 0.9349
298 K, 101 kPa, x2 = 0.6293 | 1.22
298 K, 101 kPa, x2 = 0.8001 | 1.681
298 K, 101 kPa, x2 = 0.8523 | 1.745
298 K, 101 kPa, x2 = 0.9073 | 1.658
298.15 K, 101 kPa, x1 = 0.02 | 1.157
298.15 K, 101 kPa, x1 = 0.05 | 1.464
298.15 K, 101 kPa, x1 = 0.07 | 1.62
298.15 K, 101 kPa, x1 = 0.1001 | 1.749
298.15 K, 101 kPa, x1 = 0.1199 | 1.79
298.15 K, 101 kPa, x1 = 0.1499 | 1.796
298.15 K, 101 kPa, x1 = 0.1699 | 1.783
298.15 K, 101 kPa, x1 = 0.2 | 1.723
298.15 K, 101 kPa, x1 = 0.2199 | 1.671
298.15 K, 101 kPa, x1 = 0.25 | 1.586
298.15 K, 101 kPa, x1 = 0.2701 | 1.538
298.15 K, 101 kPa, x1 = 0.3002 | 1.445
298.15 K, 101 kPa, x1 = 0.3499 | 1.313
298.15 K, 101 kPa, x1 = 0.3999 | 1.172
298.15 K, 101 kPa, x1 = 0.4499 | 1.039
298.15 K, 101 kPa, x1 = 0.5001 | 0.9437
298.15 K, 101 kPa, x1 = 0.5998 | 0.7744
298.15 K, 101 kPa, x1 = 0.7001 | 0.65
298.15 K, 101 kPa, x1 = 0.8001 | 0.5622
298.15 K, 101 kPa, x1 = 0.9 | 0.4979
298.15 K, 101 kPa, x2 = 0.31 | 0.6564
298.15 K, 101 kPa, x2 = 0.5 | 0.9237
298.15 K, 101 kPa, x2 = 0.63 | 1.224
298.15 K, 101 kPa, x2 = 0.68 | 1.399
298.15 K, 101 kPa, x2 = 0.73 | 1.49
298.15 K, 101 kPa, x2 = 0.77 | 1.582
298.15 K, 101 kPa, x2 = 0.8 | 1.678
298.15 K, 101 kPa, x2 = 0.83 | 1.701
298.15 K, 101 kPa, x2 = 0.86 | 1.732
298.15 K, 101 kPa, x2 = 0.9 | 1.68
298.15 K, 101 kPa, x2 = 0.94 | 1.49
298.15 K, 101 kPa, x2 = 0.97 | 1.202
298.15 K, 101.32 kPa, x1 = 0.0423 | 1.362
298.15 K, 101.32 kPa, x1 = 0.0812 | 1.647
298.15 K, 101.32 kPa, x1 = 0.1809 | 1.741
298.15 K, 101.32 kPa, x1 = 0.3559 | 1.285
298.15 K, 101.32 kPa, x1 = 0.5248 | 0.892
298.15 K, 101.32 kPa, x1 = 0.7342 | 0.638
298.15 K, 101.32 kPa, x1 = 0.8468 | 0.554
298.15 K, 101.32 kPa, x2 = 0.0008 | 0.47
298.15 K, 101.33 kPa, x2 = 0.111 | 0.515
298.15 K, 101.33 kPa, x2 = 0.197 | 0.565
298.15 K, 101.33 kPa, x2 = 0.3027 | 0.65
298.15 K, 101.33 kPa, x2 = 0.4036 | 0.763
298.15 K, 101.33 kPa, x2 = 0.5028 | 0.916
298.15 K, 101.33 kPa, x2 = 0.6047 | 1.129
298.15 K, 101.33 kPa, x2 = 0.7032 | 1.394
298.15 K, 101.33 kPa, x2 = 0.8017 | 1.651
298.15 K, 101.33 kPa, x2 = 0.9013 | 1.665
303.15 K, 101 kPa, x1 = 0.02 | 1.025
303.15 K, 101 kPa, x1 = 0.05 | 1.276
303.15 K, 101 kPa, x1 = 0.07 | 1.398
303.15 K, 101 kPa, x1 = 0.1001 | 1.514
303.15 K, 101 kPa, x1 = 0.1199 | 1.549
303.15 K, 101 kPa, x1 = 0.1499 | 1.558
303.15 K, 101 kPa, x1 = 0.1699 | 1.55
